Converted amounts (≈) assume the structure as drawn. Like-named read-outs stand apart in the source and are kept apart here.
What was measured:
Assay type in all cases: cell-based
E. coli ATCC25922 = test: MIC, microtiter-based liquid assay (CLSI); conditions: Escherichia coli
E. coli 1705878 = test: MIC, microtiter-based liquid assay (CLSI); conditions: Escherichia coli, MDR strain
E. coli MG1655 parent = test: MIC, microtiter-based liquid assay (CLSI); conditions: Escherichia coli
E. coli CAG12184 TolC = test: MIC, microtiter-based liquid assay (CLSI); conditions: Escherichia coli, CAG12184TOLC
[1] = system: S. pneumoniae 02J1175 Mef(A); test: MIC, microtiter-based liquid assay (CLSI); conditions: Streptococcus pneumoniae
S. aureus 11540 MRSA = test: MIC, microtiter-based liquid assay (CLSI); conditions: Staphylococcus aureus
K. pneumoniae 1705949 = test: MIC, microtiter-based liquid assay (CLSI); conditions: Klebsiella pneumoniae, MDR strain
K. pneumoniae 1705966 = test: MIC, microtiter-based liquid assay (CLSI); conditions: Klebsiella pneumoniae
A. baumannii 1705936 = test: MIC, microtiter-based liquid assay (CLSI); conditions: Acinetobacter baumannii, MDR strain
A. baumannii 1705943 = test: MIC, microtiter-based liquid assay (CLSI); conditions: Acinetobacter baumannii
P. aeruginosa ATCC27853 = test: MIC, microtiter-based liquid assay (CLSI); conditions: Pseudomonas aeruginosa
P. aeruginosa 1705886 = test: MIC, microtiter-based liquid assay (CLSI); conditions: Pseudomonas aeruginosa
P. aeruginosa 1705904 = test: MIC, microtiter-based liquid assay (CLSI); conditions: Pseudomonas aeruginosa, MDR strain
[2] = system: E. faecium A6349 VanA + LNZ-R; test: MIC, microtiter-based liquid assay (CLSI); conditions: Enterococcus faecium
B. anthracis = test: microbe, parasite or virus in culture; conditions: Bacillus anthracis; for MIC50: read-out: B. anthracis MIC50; for MIC90: read-out: B. anthracis MIC90; for MIC: read-out: B. anthracis MIC Range
Y. pestis = test: microbe, parasite or virus in culture; conditions: Yersinia pestis; for MIC50: read-out: Y. pestis MIC50; for MIC90: read-out: Y. pestis MIC90; for MIC: read-out: Y. pestis MIC Range
B. mallei = test: microbe, parasite or virus in culture; conditions: Burkholderia mallei; for MIC50: read-out: B. mallei MIC50; for MIC90: read-out: B. mallei MIC90; for MIC: read-out: B. mallei MIC Range
F. tularensis = test: microbe, parasite or virus in culture; conditions: Francisella tularensis; for MIC50: read-out: F. tularensis MIC50; for MIC90: read-out: F. tularensis MIC90; for MIC: read-out: F. tularensis MIC Range
B. pseudomallei = test: microbe, parasite or virus in culture; conditions: Burkholderia pseudomallei; for MIC50: read-out: B. pseudomallei MIC50; for MIC90: read-out: B. pseudomallei MIC90; for MIC: read-out: B. pseudomallei MIC Range
[3] = ATCC25922, read-out: MIC E. coli ATCC25922 + 50% HS
[4] = ATCC25922, read-out: MIC E. coli ATCC25922

| Compound | MIC (E. coli ATCC25922; [3]) [µg/mL] | MIC (E. coli ATCC25922; [4]) [µg/mL] | MIC (E. coli 1705878) [µg/mL] | MIC (E. coli MG1655 parent) [µg/mL] | MIC (E. coli CAG12184 TolC) [µg/mL] | MIC [1] [µg/mL] | MIC (S. aureus 11540 MRSA) [µg/mL] | MIC (K. pneumoniae 1705949) [µg/mL] | MIC (K. pneumoniae 1705966) [µg/mL] | MIC (A. baumannii 1705936) [µg/mL] | MIC (A. baumannii 1705943) [µg/mL] | MIC (P. aeruginosa ATCC27853) [µg/mL] | MIC (P. aeruginosa 1705886) [µg/mL] | MIC (P. aeruginosa 1705904) [µg/mL] | MIC [2] [µg/mL] | MIC50 (B. anthracis) [µg/mL] | MIC90 (B. anthracis) [µg/mL] | MIC (B. anthracis) [µg/mL] | MIC50 (Y. pestis) [µg/mL] | MIC90 (Y. pestis) [µg/mL] | other results |
| --- | --- | --- | --- | --- | --- | --- | --- | --- | --- | --- | --- | --- | --- | --- | --- | --- | --- | --- | --- | --- | --- |
| C[C@H](N)CCCc1cc(-c2cc3cn(-c4ccc([C@H](C)NCCCNC(=N)N)cc4)c(=O)nc3[nH]2)c(F)c(Cl)c1F [Compound 12] | 0.5 | 0.125 (≈ 0.214 µM) | 0.25 (≈ 0.427 µM) | 0.25 (≈ 0.427 µM) | 0.125 (≈ 0.214 µM) | 0.125 (≈ 0.214 µM) | 0.125 (≈ 0.214 µM) | 0.25 (≈ 0.427 µM) | 0.125 (≈ 0.214 µM) | 2 (≈ 3.42 µM) | 0.25 (≈ 0.427 µM) | 4 (≈ 6.84 µM) | 2 (≈ 3.42 µM) | 4 (≈ 6.84 µM) | 0.5 | 0.06 (≈ 0.103 µM) | 0.12 (≈ 0.205 µM) | 0.03 to 0.25 (≈ 0.0513 to 0.427 µM) | 0.12 (≈ 0.205 µM) | 0.25 (≈ 0.427 µM) | MIC (Y. pestis): 0.03 to 0.5 µg/mL (≈ 0.0513 to 0.855 µM); MIC50 (B. mallei): ≤ 0.03 µg/mL; MIC90 (B. mallei): 0.12 µg/mL (≈ 0.205 µM); MIC (B. mallei): 0.03 to 0.25 µg/mL (≈ 0.0513 to 0.427 µM); MIC50 (F. tularensis): ≤ 0.03 µg/mL; MIC90 (F. tularensis): ≤ 0.03 µg/mL; MIC (F. tularensis): 0.03 to 1 µg/mL (≈ 0.0513 to 1.71 µM); MIC50 (B. pseudomallei): 4 µg/mL (≈ 6.84 µM); MIC90 (B. pseudomallei): 8 µg/mL (≈ 13.7 µM); MIC (B. pseudomallei): 0.5 to 16 µg/mL (≈ 0.855 to 27.3 µM) |
| C[C@@H](N)CCCc1cc(Cl)c(F)c(-c2cc3cn(-c4ccc(CNCCCNC(=N)N)cc4)c(=O)nc3[nH]2)c1 [Compound 1] | 0.125 | 0.125 (≈ 0.226 µM) | 1 (≈ 1.81 µM) | 0.5 (≈ 0.904 µM) | 0.06 (≈ 0.108 µM) | 0.25 (≈ 0.452 µM) | 0.125 (≈ 0.226 µM) | 2 (≈ 3.62 µM) | 0.25 (≈ 0.452 µM) | 4 (≈ 7.23 µM) | 0.25 (≈ 0.452 µM) | 4 (≈ 7.23 µM) | 2 (≈ 3.62 µM) | 8 (≈ 14.5 µM) | 4 | 0.12 (≈ 0.217 µM) | 0.25 (≈ 0.452 µM) | 0.03 to 0.25 (≈ 0.0542 to 0.452 µM) | 0.12 (≈ 0.217 µM) | 0.25 (≈ 0.452 µM) | MIC (Y. pestis): 0.03 to 0.5 µg/mL (≈ 0.0542 to 0.904 µM); MIC50 (B. mallei): ≤ 0.03 µg/mL; MIC90 (B. mallei): 0.06 µg/mL (≈ 0.108 µM); MIC (B. mallei): 0.03 to 0.25 µg/mL (≈ 0.0542 to 0.452 µM); MIC50 (F. tularensis): ≤ 0.03 µg/mL; MIC90 (F. tularensis): ≤ 0.03 µg/mL; MIC (F. tularensis): 0.03 to 0.5 µg/mL (≈ 0.0542 to 0.904 µM); MIC50 (B. pseudomallei): 4 µg/mL (≈ 7.23 µM); MIC90 (B. pseudomallei): 4 µg/mL (≈ 7.23 µM); MIC (B. pseudomallei): 0.5 to 16 µg/mL (≈ 0.904 to 28.9 µM) |
| C[C@H](NCCCNC(=N)N)c1ccc(-n2cc3cc(-c4cc(CCC[C@@H](N)CO)cc(Cl)c4F)[nH]c3nc2=O)cc1 [Compound 5] | 0.25 | 0.125 (≈ 0.214 µM) | 2 (≈ 3.43 µM) | 0.5 (≈ 0.857 µM) | 0.06 (≈ 0.103 µM) | 0.125 (≈ 0.214 µM) | 0.125 (≈ 0.214 µM) | 0.5 (≈ 0.857 µM) | 0.125 (≈ 0.214 µM) | 2 (≈ 3.43 µM) | 0.25 (≈ 0.429 µM) | 4 (≈ 6.86 µM) | 4 (≈ 6.86 µM) | 8 (≈ 13.7 µM) | 1 | 0.12 (≈ 0.206 µM) | 0.12 (≈ 0.206 µM) | 0.03 to 2 (≈ 0.0514 to 3.43 µM) | 0.25 (≈ 0.429 µM) | 0.5 (≈ 0.857 µM) | MIC (Y. pestis): 0.03 to 2 µg/mL (≈ 0.0514 to 3.43 µM); MIC50 (B. mallei): 0.06 µg/mL (≈ 0.103 µM); MIC90 (B. mallei): 0.25 µg/mL (≈ 0.429 µM); MIC (B. mallei): 0.03 to 0.5 µg/mL (≈ 0.0514 to 0.857 µM); MIC50 (F. tularensis): ≤ 0.03 µg/mL; MIC90 (F. tularensis): ≤ 0.03 µg/mL; MIC (F. tularensis): 0.03 to 0.25 µg/mL (≈ 0.0514 to 0.429 µM); MIC50 (B. pseudomallei): 16 µg/mL (≈ 27.4 µM); MIC90 (B. pseudomallei): 16 µg/mL (≈ 27.4 µM) |
| C=C[C@H](NCCCNC(=N)N)c1ccc(-n2cc3cc(-c4cc(CCC[C@H](C)N)cc(Cl)c4F)[nH]c3nc2=O)cc1 [Compound 10] | 0.25 | 0.25 (≈ 0.432 µM) | 0.5 (≈ 0.863 µM) | 0.25 (≈ 0.432 µM) | 0.25 (≈ 0.432 µM) | 0.25 (≈ 0.432 µM) | 0.25 (≈ 0.432 µM) | 0.5 (≈ 0.863 µM) | 0.25 (≈ 0.432 µM) | 2 (≈ 3.45 µM) | 0.25 (≈ 0.432 µM) | 4 (≈ 6.91 µM) | 2 (≈ 3.45 µM) | 4 (≈ 6.91 µM) | 0.5 | 0.12 (≈ 0.207 µM) | 0.25 (≈ 0.432 µM) | 0.03 to 0.25 (≈ 0.0518 to 0.432 µM) | ≤ 0.03 | 0.06 (≈ 0.104 µM) | MIC (Y. pestis): 0.03 to 0.25 µg/mL (≈ 0.0518 to 0.432 µM); MIC50 (B. mallei): ≤ 0.03 µg/mL; MIC90 (B. mallei): 0.12 µg/mL (≈ 0.207 µM); MIC (B. mallei): 0.03 to 0.25 µg/mL (≈ 0.0518 to 0.432 µM); MIC50 (F. tularensis): ≤ 0.03 µg/mL; MIC90 (F. tularensis): 0.06 µg/mL (≈ 0.104 µM); MIC (F. tularensis): 0.03 to 4 µg/mL (≈ 0.0518 to 6.91 µM); MIC50 (B. pseudomallei): 1 µg/mL (≈ 1.73 µM); MIC90 (B. pseudomallei): 2 µg/mL (≈ 3.45 µM); MIC (B. pseudomallei): 0.25 to 8 µg/mL (≈ 0.432 to 13.8 µM) |
| C[C@H](N)CCCc1cc(Cl)c(F)c(-c2cc3cn(-c4ccc([C@H](N)CCCCNC(=N)N)cc4)c(=O)nc3[nH]2)c1 [Compound 16] | 0.125 | 0.125 (≈ 0.22 µM) | 0.5 (≈ 0.882 µM) | 0.25 (≈ 0.441 µM) | 0.06 (≈ 0.106 µM) | 0.25 (≈ 0.441 µM) | 0.25 (≈ 0.441 µM) | 2 (≈ 3.53 µM) | 0.25 (≈ 0.441 µM) | 2 (≈ 3.53 µM) | 0.125 (≈ 0.22 µM) | 4 (≈ 7.05 µM) | 4 (≈ 7.05 µM) | 8 (≈ 14.1 µM) | 2 | ≤ 0.03 | 0.06 (≈ 0.106 µM) | 0.03 to 0.12 (≈ 0.0529 to 0.212 µM) | 0.12 (≈ 0.212 µM) | 0.25 (≈ 0.441 µM) | MIC (Y. pestis): 0.03 to 0.5 µg/mL (≈ 0.0529 to 0.882 µM); MIC50 (B. mallei): ≤ 0.03 µg/mL; MIC90 (B. mallei): 0.06 µg/mL (≈ 0.106 µM); MIC (B. mallei): 0.03 to 0.06 µg/mL (≈ 0.0529 to 0.106 µM); MIC50 (F. tularensis): ≤ 0.03 µg/mL; MIC90 (F. tularensis): 0.12 µg/mL (≈ 0.212 µM); MIC (F. tularensis): 0.03 to 1 µg/mL (≈ 0.0529 to 1.76 µM); MIC50 (B. pseudomallei): 4 µg/mL (≈ 7.05 µM); MIC90 (B. pseudomallei): 8 µg/mL (≈ 14.1 µM); MIC (B. pseudomallei): 2 to 16 µg/mL (≈ 3.53 to 28.2 µM) |
